Assay results: patent US7557133B2, “Caspase inhibitors containing isoxazoline ring” (LG Life Sciences Ltd., priority 2003, dated 2009)

Tests used:
[1] = test system: Jurkat cell (ATCC TIB-152); assay: Jurkat cell apoptosis by Fas antibody, WST-1 method; type: cell-based; conditions: apoptosis using Fas antibody, WST-1; for IC50: Homo sapiens, Jurkat
Method: The […] inhibitory activity of the inhibitors was determined by subjecting Jurkat cell (ATCC TIB-152) to apoptosis using Fas antibody (Upstate Biotech 05-201) and by detecting the color change according to the WST-1 method known in Francoeur A. M. and Assalian A. (1996) Biochemica 3, 19-25 to observe the amount of alive Jurkat cells when the cells were treated by the inhibitor. Spectra MAX 340 Spectrometer of Molecular Device Co. was used at the absorbance wavelength of 440 nm.

caspase-8 = biological target: T1, caspase-8 (Homo sapiens, UniProt Q14790); assay: Caspase-8 inhibitory effect (fluorescent substrate AcDEVD-AFC); type: biochemical; conditions: 25° C., 50 μM AcDEVD-AFC, 2.1 nM caspase-8; for kinact/KI: pH 7.5, read-out: Caspase-8 Kobs/[I] (converted)
T1 construct: p10 and p20 subunits (Thornberry, N. A. et al, Nature, 1992, 356, 768) were expressed in E. coli; made in house; host or cells: E. coli
T1 sequence (Q14790 217-374 limits assumed, species assumed): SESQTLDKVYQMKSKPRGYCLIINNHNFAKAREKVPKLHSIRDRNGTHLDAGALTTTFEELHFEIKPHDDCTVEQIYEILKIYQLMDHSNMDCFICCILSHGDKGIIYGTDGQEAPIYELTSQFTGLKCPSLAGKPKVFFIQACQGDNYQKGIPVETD
T1 sequence (Q14790 385-479 limits assumed, species assumed): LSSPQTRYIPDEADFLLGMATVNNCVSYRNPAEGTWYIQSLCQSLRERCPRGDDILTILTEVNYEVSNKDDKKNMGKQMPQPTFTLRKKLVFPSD
Method: Caspase-1 and caspase-8 known as cysteine proteases in the form of α2β2 were expressed, purified, and activated by modifying a method known in Thornberry, N. A. et al, Nature, 1992, 356, 768. Thornberry, N. A. Methods in Enzymology, 1994, 244, 615. Walker, N. P. C. et al. Cell, 1994, 78, 343, and caspase-9 was also purified by a similar method, and the inhibitory activity against them was tested. Briefly describing, p10 and p20 subunits (Thornberry, N. A. et al, Nature, 1992, 356, 768) were expressed in E. coli and purified by nickel column and anionic exchange chromatography to give caspase-1, caspase-8 and caspase-9. The fluorescent substrate AcYVAD-AFC for thus obtained caspase-1, AcDEVD-AFC for caspase-8, and AcLEHD-AFC for caspase-9 were used for determining specific activity of the synthesized inhibitors. The enzyme reaction was carried out at 25° C. with various concentrations of the inhibitors in a buffer solution containing 50 mM HEPES(pH 7.50), 10% (w/v) sucrose, 0.1% (w/v) CHAPS, 100 mM NaCl, 1 mM EDTA, and 10 mM DTT in the presence of 50 μM AcYVAD-AFC for 10 nM caspase-1, 50 μM AcDEVD-AFC for 2.1 nM caspase-8, and 150 μM AcLEHD-AFC for 200 nM caspase-9. The inhibitory constants Ki and Kobs of the inhibitors were determined by measuring the reaction velocity with the time lapse using a fluorescent spectrometer and by obtaining the initial rate constant. Ki was calculated from the Lineweaver Burk Plot, and Kobs from the following Equation 1. Kobs=−ln(1−At/Aoo)/t Equation 1
At means cleavate rate (%) at time t, and
Aoo means the maximum cleavage rate (%).
Spectra MAX GeminiXS Fluorescent Spectrometer of Molecular Device Co. was used at the excitation wavelength of 405 nm and the emission wavelength of […].

SMILES | Jurkat cell IC50 [1] | kinact/KI (caspase-8) | Caspase-8 Kobs/[I] (caspase-8) | IC50 [1]
CC(C)[C@@]1(C(=O)N[C@@H](CC(=O)O)C(=O)COC2=C(Cc3ccccc3)C(=O)OC2)CC(c2nccc3ccccc23)=NO1 [Iaa20, (3S)-5-[(4-benzyl-5-oxo-2,5-dihydro-3-furanyl)oxy]-3-({[(5R)-5-isopropyl-3-(1-isoquinolinyl)-4,5-dihydro-5-isoxazolyl]carbonyl}amino)-4-oxopentanoic Acid] | No Activity | 617 M⁻¹ s⁻¹ | – | –
CC(C)C(=O)OCC(=O)[C@H](CC(=O)O)NC(=O)[C@]1(C(C)C)CC(c2nccc3ccccc23)=NO1 [Iaa21, (3S)-5-(isobutyryloxy)-3-({[(5R)-5-isopropyl-3-(1-isoquinolinyl)-4,5-dihydro-5-isoxazolyl]carbonyl}amino)-4-oxopentanoic acid] | No Activity | – | No Activity | –
CC(C)[C@@]1(C(=O)N[C@@H](CC(=O)O)C(=O)COc2ccccn2)CC(c2nccc3ccccc23)=NO1 [Iaa23, (3S)-3-({[(5R)-5-isopropyl-3-(1-isoquinolinyl)-4,5-dihydro-5-isoxazolyl]carbonyl}amino)-4-oxo-5-(2-pyridinyloxy)pentanoic Acid] | No Activity | 483 M⁻¹ s⁻¹ | – | –
CC(C)[C@@]1(C(=O)N[C@@H](CC(=O)O)C(=O)COc2cccc[n+]2C)CC(c2nccc3ccccc23)=NO1.O=S(=O)([O-])C(F)(F)F [Iaa25, 2-{[(3S)-4-carboxy-3-({[(5R)-5-isopropyl-3-(1-isoquinolinyl)-4,5-dihydro-5-isoxazolyl]carbonyl}amino)-2-oxobutyl]oxy}-1-methylpyridinium trifluoromethanesulfonate] | No Activity | 2830 M⁻¹ s⁻¹ | – | –
CCC1(C(=O)N[C@@H](CC(=O)O)C(=O)COc2cccc[n+]2C)CC(c2ccccc2C(C)C)=NO1.O=S(=O)([O-])C(F)(F)F (stereo partly drawn) [Iaa26, 2-{[(3S)-4-carboxy-3-({[5-ethyl-3-(2-isopropylphenyl)-4,5-dihydro-5-isoxazolyl]carbonyl}amino)-2-oxobutyl]oxy}-1-methylpyridinium trifluoromethanesulfonate] | No Activity | 517 M⁻¹ s⁻¹ | – | –
CC(C)C1(C(=O)NC(CC(=O)O)C(=O)CF)CC(c2cc3cc(Cl)ccc3n2C)=NO1 (centres unmarked) [Iaa27, 3-({[3-(5-chloro-1-methyl-1H-indol-2-yl)-5-isopropyl-4,5-dihydro-5-isoxazolyl]carbonyl}amino)-5-fluoro-4-oxopentanoic acid] | – | 13700 M⁻¹ s⁻¹ | – | 1300 nM
Cc1ccc2c(c1)cc(C1=NOC(C(=O)NC(CC(=O)O)C(=O)CF)(C(C)C)C1)n2C (centres unmarked) [Iaa28, 3-({[3-(1,5-dimethyl-1H-indol-2-yl)-5-isopropyl-4,5-dihydro-5-isoxazolyl]carbonyl}amino)-5-fluoro-4-oxopentanoic Acid] | – | 30000 M⁻¹ s⁻¹ | – | 600 nM
CCC1(C(=O)N[C@@H](CC(=O)O)C(=O)COc2c(F)c(F)cc(F)c2F)CC(c2ccc3ccccc3c2)=NO1 (stereo partly drawn) [Iee, (3S)-3-({[5-ethyl-3-(2-naphthyl)-4,5-dihydro-5-isoxazolyl]carbonyl}amino)-4-oxo-5-(2,3,5,6-tetrafluorophenoxy)pentanoic acid] | – | 3000 M⁻¹ s⁻¹ | – | 32600 nM
CCC1(C(=O)N[C@@H](CC(=O)O)C(=O)COc2c(F)c(F)cc(F)c2F)CC(c2nccc3ccccc23)=NO1 (stereo partly drawn) [Iff, (3S)-3-({[5-ethyl-3-(1-isoquinolinyl)-4,5-dihydro-5-isoxazolyl]carbonyl}amino)-4-oxo-5-(2,3,5,6-tetrafluorophenoxy)pentanoic acid] | – | 8330 M⁻¹ s⁻¹ | – | 1200 nM
CCC1(C(=O)N[C@@H](CC(=O)O)C(=O)COc2c(F)c(F)cc(F)c2F)CC(c2c(C)c3ccccc3n2C)=NO1 (stereo partly drawn) [Ill, (3S)-3-({[3-(1,3-dimethyl-1H-indol-2-yl)-5-ethyl-4,5-dihydro-5-isoxazolyl]carbonyl}amino)-4-oxo-5-(2,3,5,6-tetrafluorophenoxy)pentanoic acid] | – | 2170 M⁻¹ s⁻¹ | – | 39200 nM
CCC1(C(=O)NC(CC(=O)O)C(=O)CF)CC(c2c(C)c3ccccc3n2C)=NO1 (centres unmarked) [Imm, 3-({[3-(1,3-Dimethyl-1H-indol-2-yl)-5-ethyl-4,5-dihydro-5-isoxazolyl]carbonyl}amino)-5-fluoro-4-oxopentanoic acid] | – | 2670 M⁻¹ s⁻¹ | – | 2000 nM
CCC1(C(=O)N[C@@H](CC(=O)O)C(=O)COc2c(F)c(F)cc(F)c2F)CC(Cc2cccc3ccccc23)=NO1 (stereo partly drawn) [Inn, (3S)-3-({[5-ethyl-3-(1-naphthylmethyl)-4,5-dihydro-5-isoxazolyl]carbonyl}amino)-4-oxo-5-(2,3,5,6-tetrafluorophenoxy)pentanoic acid] | – | 4330 M⁻¹ s⁻¹ | – | 6500 nM
CCC1(C(=O)N[C@@H](CC(=O)O)C(=O)COC(=O)c2c(Cl)cccc2Cl)CC(CCc2cccc3ccccc23)=NO1 (stereo partly drawn) [Ioo, (3S)-5-[(2,6-dichlorobenzoyl)oxy]-3-[({5-ethyl-3-[2-(1-naphthyl)ethyl]-4,5-dihydro-5-isoxazolyl}carbonyl)amino]-4-oxopentanoic acid] | – | 333 M⁻¹ s⁻¹ | – | 50000 nM

Next, values leading:

Jurkat cell IC50 [1] | kinact/KI (caspase-8) | Caspase-8 Kobs/[I] (caspase-8) | IC50 [1] | SMILES
– | 3170 M⁻¹ s⁻¹ | – | 4700 nM | CCC1(C(=O)NC(CC(=O)O)C(=O)CF)CC(c2ccnc3ccccc23)=NO1 (centres unmarked) [Ijj, 3-({[5-Ethyl-3-(4-quinolinyl)-4,5-dihydro-5-isoxazolyl]carbonyl}amino)-5-fluoro-4-oxopentanoic acid]
– | 2000 M⁻¹ s⁻¹ | – | 1100 nM | CCC1(C(=O)NC(CC(=O)O)C(=O)CF)CC(c2cc3ccccc3s2)=NO1 (centres unmarked) [Ikk, 3-({[3-(benzothiophen-2-yl)-5-ethyl-4,5-dihydro-5-isoxazolyl]carbonyl}amino)-5-fluoro-4-oxopentanoic acid]
– | 7170 M⁻¹ s⁻¹ | – | 160 nM | CCC[C@@]1(C(=O)NC(CC(=O)O)C(=O)CF)CC(c2nccc3ccccc23)=NO1 (stereo partly drawn) [Itt, 5-Fluoro-3-({[(5S)-3-(1-isoquinolinyl)-5-propyl-4,5-dihydro-5-isoxazolyl]carbonyl}amino)-4-oxopentanoic acid]
– | 4830 M⁻¹ s⁻¹ | – | 980 nM | CC[C@@]1(C(=O)NC(CC(=O)O)C(=O)CF)CC(c2cccc3ccccc23)=NO1 (stereo partly drawn) [Iuu, 3-({[(5S)-5-ethyl-3-(1-naphthyl)-4,5-dihydro-5-isoxazolyl]carbonyl}amino)-5-fluoro-4-oxopentanoic acid]
– | 25000 M⁻¹ s⁻¹ | – | 150 nM | CC[C@@]1(C(=O)NC(CC(=O)O)C(=O)CF)CC(c2ccc3ccccc3n2)=NO1 (stereo partly drawn) [Ivv, 3-({[(5S)-5-ethyl-3-(2-quinolinyl)-4,5-dihydro-5-isoxazolyl]carbonyl}amino)-5-fluoro-4-oxopentanoic acid]
– | 18300 M⁻¹ s⁻¹ | – | 1900 nM | CC[C@]1(C(=O)NC(CC(=O)O)C(=O)CF)CC(c2cc3ccccc3cn2)=NO1 (stereo partly drawn) [Iww, 3-({[(5R)-5-ethyl-3-(3-isoquinolinyl)-4,5-dihydro-5-isoxazolyl]carbonyl}amino)-5-fluoro-4-oxopentanoic Acid]
– | 667 M⁻¹ s⁻¹ | – | 26500 nM | CCC1(C(=O)NC(CC(=O)O)C(=O)CF)CC(c2cccc3cccnc23)=NO1 (centres unmarked) [Ixx, 3-({[5-ethyl-3-(8-quinolinyl)-4,5-dihydro-5-isoxazolyl]carbonyl}amino)-5-fluoro-4-oxopentanoic acid]
– | 5170 M⁻¹ s⁻¹ | – | 31200 nM | CCC1(C(=O)NC(CC(=O)O)C(=O)CF)CC(c2cnc3ccccc3c2)=NO1 (centres unmarked) [Iyy, 3-({[5-ethyl-3-(3-quinolinyl)-4,5-dihydro-5-isoxazolyl]carbonyl}amino)-5-fluoro-4-oxopentanoic acid]
– | 7000 M⁻¹ s⁻¹ | – | 1250 nM | CC(C)[C@@]1(C(=O)NC(CC(=O)O)C(=O)CF)CC(c2ccc3ccccc3n2)=NO1 (stereo partly drawn) [Izz, 5-Fluoro-3-({[(5R)-5-isopropyl-3-(2-quinolinyl)-4,5-dihydro-5-isoxazolyl]carbonyl}amino)-4-oxopentanoic Acid]
